Assay results reported in patent US8853235B2, “Polymorphs and salts of a kinase inhibitor” (Senhwa Biosciences, Inc., priority 2009, dated 2014).
“And” between values parts separate entries of the source, which are not always exact repeats. Equal entries are not always repeated.

How the values were obtained:
Type in all cases: physicochemical
[1] = Intrinsic solubility / dissolution rate of salts and polymorphs (FIGS. 82-83); conditions: qualitative; for ease of dissolution: FIGS. 82-83
[2] = Storage, drying and light stability of sodium salt forms, by XRPD; conditions: for physical change in light study by XRPD: 5 day light studies; for time in which material reverts to Form II: 5 day stability study, 40° C./75% RH; for physical change on storage by XRPD: about 80° C. over about 5 days
[3] = Solubility in organic solvents, sodium salt vs free acid (FIG. 81); conditions: compared with the acid
[4] = Micronization of Arginine and TRIS salts, physical form check; conditions: micronized vs pre-micronized
Text: Both Arginine and TRIS salt forms of compound I prepared as described above were micronized at Pharmaterials in preparation for PK studies. Particle size reduction was done using a Sturtevant Qualification Micronizer® (Sturtevant Inc. Hanover Mass., USA) with dry nitrogen gas as feed and grind gas. To avoid clogging of the venturi and feed nozzle, the polymorph was initially ground using a pestle and motor to break down large particles. Grinding was done at room temperature using the following settings: • Feed air pressure: 80 psi • Grind air pressure: 100 psi
The micronized polymorph was collected from the exhaust bag and put in a glass vial pending further analysis. The material was then analyzed for particle size distribution based on a method established and applied to each batch. […] The samples were also analyzed by HPLC to determine chemical purity.

[5] = Slurry of Arginine and TRIS salts to determine stability (competitive slurry); conditions: for relative stability of the two forms: competitive slurry, MeOH/H2O (90:10) and EtOH/H2O (90:10); for form after slurry by XRPD: MeOH/H2O (90:10), temperature cycling 40° C. and RT, 4 hour periods, 5 days
Text: Both Arginine and TRIS salt forms of compound I prepared as described above were slurried in 2˜4 different solvents including aqueous mixes to further determine the stability of the new salt forms. The solids were then dried and analyzed by XRPD and Raman to check for changes in physical and/or chemical form.

[6] = Determination of particle size distribution (Malvern Mastersizer); conditions: for d50, 3 times / d90, 3 times: single measurements
Method: Particle size analysis of the pre-milled and post-milled TRIS and arginine salts was carried out using the Malvern Mastersizer, Model Micro Plus. Backgrounds were first measured using the appropriate vehicle solution as diluent (Dimethyl Siloxane). The samples were added drop-wise until a suitable obscuration value was achieved, and particle size distribution measured. A minimum of three analyses were made for each sample.

[7] = Short term accelerated stability study of Arginine and TRIS salts; conditions: 40° C./75% RH; for change by XRPD and DSC: 4 week period; for HPLC impurity after storage: after 4 weeks
Method: Arginine and TRIS salts of compound I prepared as described above were stored at 40° C./75% RH. Each sample was assessed at 0,1 week, 2 weeks and 4 weeks by XRPD, DSC and HPLC assess the stability of each salt.

[8] = Gravimetric Vapor Sorption (GVS) of sodium salt polymorphs; conditions: for XRPD analysis of the post-GVS experiment sample: after GVS; for GVS desorption: sample retains water until: mass drops significantly there; for hydroscopicity by GVS: qualitative
[9] = Water solubility of compound (I) acid and its salts; conditions: qualitative, acid form vs salts

O=C(O)c1ccc2c(c1)nc(Nc1cccc(Cl)c1)c1ccncc12 [Form I, 5-(3-chlorophenylamino)benzo[c][2,6]naphthyridine-8-carboxylic acid]
solubility relative to other polymorphs [1]: significantly more soluble than other polymorphs
physical form on storage ([2]; dry conditions less than 30° C.): stay amorphous
solubility in organic solvents [3]: more soluble in organic solvents than the acid

O=C(O)c1ccc2c(c1)nc(Nc1cccc(Cl)c1)c1ccncc12 [Form XXI, 5-(3-chlorophenylamino)benzo[c][2,6]naphthyridine-8-carboxylic acid]
DSC change after micronization [4]: no significant change
XRPD change after micronization [4]: no significant change in crystalline structure
ease of dissolution [1]: particularly easily dissolved
relative stability of the two forms [5]: more stable
d50, Average ([6]; micronized): 4.1 μm
d90, Average ([6]; micronized): 8.0 μm
d50, 3 times ([6]; micronized): 3.98 μm and 4.04 μm and 4.14 μm
d90, 3 times ([6]; micronized): 7.90 μm and 7.94 μm and 8.13 μm
d50, Average ([6]; pre-micronized): 21.6 μm
d90, Average ([6]; pre-micronized): 71.0 μm
d50, 3 times ([6]; pre-micronized): 19.97 μm and 21.13 μm and 23.60 μm
d90, 3 times ([6]; pre-micronized): 62.36 μm and 70.79 μm and 79.85 μm
change by XRPD and DSC [7]: no significant change
HPLC impurity after storage [7]: no additional impurity

O=C(O)c1ccc2c(c1)nc(Nc1cccc(Cl)c1)c1ccncc12 [Form IV, 5-(3-chlorophenylamino)benzo[c][2,6]naphthyridine-8-carboxylic acid]
GVS uptake of water on sorption ([8]; about 20-60% RH): about 1%
GVS further rapid uptake ([8]; about 60-70% RH): approximately 8%
XRPD analysis of the post-GVS experiment sample [8]: amorphous content
GVS desorption: sample retains water until [8]: about 5%
physical change in light study by XRPD [2]: no physical change
time in which material reverts to Form II [2]: ≤ 24 h
physical change on storage by XRPD [2]: no physical change
form after drying ([2]; drying at 50° C.): converts to another crystalline polymorph

O=C(O)c1ccc2c(c1)nc(Nc1cccc(Cl)c1)c1ccncc12 [Form XXII-B, 5-(3-chlorophenylamino)benzo[c][2,6]naphthyridine-8-carboxylic acid]
form after slurry by XRPD [5]: complete conversion to Form XXII

O=C(O)c1ccc2c(c1)nc(Nc1cccc(Cl)c1)c1ccncc12 [Compound I, 5-(3-chlorophenylamino)benzo[c][2,6]naphthyridine-8-carboxylic acid]
water solubility [9]: very low

O=C(O)c1ccc2c(c1)nc(Nc1cccc(Cl)c1)c1ccncc12 [Form III, 5-(3-chlorophenylamino)benzo[c][2,6]naphthyridine-8-carboxylic acid]
XRPD analysis of the post-GVS experiment sample [8]: amorphous content
GVS desorption: sample retains water until [8]: 5%
hydroscopicity by GVS [8]: hydroscopic
GVS water absorbed on sorption ([8]; sorption): 11%
physical change in light study by XRPD [2]: no physical change
time in which material reverts to Form II [2]: ≤ 24 h
physical change on storage by XRPD [2]: less crystalline appearance

O=C(O)c1ccc2c(c1)nc(Nc1cccc(Cl)c1)c1ccncc12 [Form XXI-B, 5-(3-chlorophenylamino)benzo[c][2,6]naphthyridine-8-carboxylic acid]
form after slurry by XRPD [5]: complete conversion to Form XXI

O=C(O)c1ccc2c(c1)nc(Nc1cccc(Cl)c1)c1ccncc12 [Form VII, 5-(3-chlorophenylamino)benzo[c][2,6]naphthyridine-8-carboxylic acid]
stability by XRPD ([2]; ambient conditions and 40° C./75% relative humidity, seven days): stable

O=C(O)c1ccc2c(c1)nc(Nc1cccc(Cl)c1)c1ccncc12 [Form II, 5-(3-chlorophenylamino)benzo[c][2,6]naphthyridine-8-carboxylic acid]
GVS uptake of water ([8]; 20-70% RH): about 12%
GVS weight gain ([8]; RH range of about 10% to about 70%): about 8%
form conversion in the GVS cycle ([8]; about 10% to about 90% RH, repeated): No further form conversion was observed
XRPD analysis of the post-GVS experiment sample [8]: amorphous content
hydroscopicity by GVS [8]: moderate
solubility relative to other polymorphs [1]: significantly more soluble than other polymorphs
form after drying ([2]; 80° C. for about 24 hours and prolonged drying at 60° C.): converted to amorphous material

O=C(O)c1ccc2c(c1)nc(Nc1cccc(Cl)c1)c1ccncc12 [Form XXII, 5-(3-chlorophenylamino)benzo[c][2,6]naphthyridine-8-carboxylic acid]
DSC change after micronization [4]: no significant change
XRPD change after micronization [4]: no significant change in crystalline structure
ease of dissolution [1]: particularly easily dissolved
relative stability of the two forms [5]: more stable
d50, Average ([6]; micronized): 6.0 μm
d90, Average ([6]; micronized): 10.5 μm
d50, 3 times ([6]; micronized): 6.12 μm and 6.03 μm and 5.99 μm
d90, 3 times ([6]; micronized): 10.72 μm and 10.51 μm and 10.41 μm
d50, Average ([6]; pre-micronized): 10.0 μm
d90, Average ([6]; pre-micronized): 23.4 μm
d50, 3 times ([6]; pre-micronized): 9.97 μm and 9.98 μm and 10.06 μm
d90, 3 times ([6]; pre-micronized): 23.26 μm and 23.15 μm and 23.68 μm
change by XRPD and DSC [7]: no significant change
HPLC impurity after storage [7]: no additional impurity
